According to ChEMBL document CHEMBL1201862, “PubChem BioAssay data set” (2004):
Blank lines part the entries; values can stand above or below the molecule they belong to. The source made the active and inactive calls.

How the values were obtained:
[1] = biological target: T1, Polyadenylate-binding protein 1 (Homo sapiens, UniProt P11940); assay: MLLE domain peptide-binding blockers, IC50 – biochemical, fluorescence polarization, FITC-PAM2 peptide, dose response (AID 602259); format: functional; conditions: read-out: IC50_Mean
[2] = biological target: T1, Polyadenylate-binding protein 1; assay: MLLE binding blockers, Cy5 peptide tracer – biochemical, fluorescence polarization, Cy5-PAM2 peptide, secondary, miRNA deadenylation inhibitor project, dose response (AID 602260); format: functional; conditions: read-out: IC50_Mean
[3] = biological target: T2, Microphthalmia-associated transcription factor (Homo sapiens, UniProt O75030); assay: reducers of TRPM1 reporter luminescence, concentration series – cell-based, SK-MEL-5, cherry-picked, set 3, MITF inhibitor project, dose response (AID 493073); format: functional;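 further: SK-MEL-5 melanoma cells with luciferase driven by the MITF target TRPM1 promoter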
T2 sequence (O75030 whole entry): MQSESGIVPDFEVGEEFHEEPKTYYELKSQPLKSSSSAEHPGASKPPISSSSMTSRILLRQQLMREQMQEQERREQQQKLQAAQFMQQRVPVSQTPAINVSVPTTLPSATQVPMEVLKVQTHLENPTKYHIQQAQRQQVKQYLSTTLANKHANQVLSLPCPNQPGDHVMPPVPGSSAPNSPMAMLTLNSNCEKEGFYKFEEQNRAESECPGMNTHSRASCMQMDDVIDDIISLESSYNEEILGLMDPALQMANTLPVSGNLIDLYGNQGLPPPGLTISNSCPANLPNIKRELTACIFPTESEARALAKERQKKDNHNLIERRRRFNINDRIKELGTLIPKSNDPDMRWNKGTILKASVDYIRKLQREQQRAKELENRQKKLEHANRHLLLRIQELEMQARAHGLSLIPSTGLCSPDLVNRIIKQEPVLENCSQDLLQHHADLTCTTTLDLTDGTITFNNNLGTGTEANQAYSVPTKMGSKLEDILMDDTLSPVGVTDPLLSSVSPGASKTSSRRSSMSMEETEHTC

Vero = assay: viability of Vero cells under compound – cytotoxicity control for flavivirus capping enzyme inhibitors (AID 588742); format: functional; conditions: Chlorocebus sabaeus
Genome polyprotein = Genome polyprotein (dengue virus type 2, UniProt P29990); assay: flavivirus cap methylation enzyme inhibition – biochemical, confirmation dose response, primary screen (AID 588689); format: functional
cells [4] = format: functional, cell-based
cells [5] = format: functional, cell-based; remark: listed apart in the source
HeLa = assay: ATP-based viability loss in HeLa cells – cell-based, CellTiter-Glo luminescence, cherry-pick samples, cytotoxicity control for MITF activator project, dose response (AID 540259); format: functional; conditions: Homo sapiens
Leucine aminopeptidase = biological target: T3, Leucine aminopeptidase (Plasmodium falciparum 3D7, UniProt Q8IL11); assay: P. falciparum M17LAP inhibitors, primary screen, biochemical, fluorogenic H-Leu-NHMec substrate, 1536-well (AID 1619); format: functional
T3 sequence (Q8IL11 whole entry): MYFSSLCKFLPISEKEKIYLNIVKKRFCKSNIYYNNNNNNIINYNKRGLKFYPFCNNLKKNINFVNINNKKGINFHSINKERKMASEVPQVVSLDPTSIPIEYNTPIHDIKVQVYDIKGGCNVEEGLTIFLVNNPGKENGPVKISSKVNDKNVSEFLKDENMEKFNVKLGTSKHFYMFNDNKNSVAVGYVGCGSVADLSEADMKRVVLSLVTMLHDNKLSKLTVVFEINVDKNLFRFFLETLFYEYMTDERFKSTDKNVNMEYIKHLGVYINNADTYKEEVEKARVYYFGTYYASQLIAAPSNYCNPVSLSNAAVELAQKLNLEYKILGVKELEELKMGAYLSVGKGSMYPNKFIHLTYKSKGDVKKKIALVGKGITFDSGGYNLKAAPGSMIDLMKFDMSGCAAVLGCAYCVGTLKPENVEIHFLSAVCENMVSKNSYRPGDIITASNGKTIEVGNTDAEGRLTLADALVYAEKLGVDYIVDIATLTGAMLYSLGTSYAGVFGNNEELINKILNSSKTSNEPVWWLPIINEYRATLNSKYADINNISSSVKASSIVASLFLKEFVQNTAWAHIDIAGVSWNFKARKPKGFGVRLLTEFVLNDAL

Coagulation factor XII = biological target: T4, Coagulation factor XII (Homo sapiens, UniProt P00748); format: functional;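 further: activated factor XIIa alpha cleaving a fluorogenic AMC peptide substrate; inhibitor potency from loss of enzyme activity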
T4 sequence (P00748 whole entry): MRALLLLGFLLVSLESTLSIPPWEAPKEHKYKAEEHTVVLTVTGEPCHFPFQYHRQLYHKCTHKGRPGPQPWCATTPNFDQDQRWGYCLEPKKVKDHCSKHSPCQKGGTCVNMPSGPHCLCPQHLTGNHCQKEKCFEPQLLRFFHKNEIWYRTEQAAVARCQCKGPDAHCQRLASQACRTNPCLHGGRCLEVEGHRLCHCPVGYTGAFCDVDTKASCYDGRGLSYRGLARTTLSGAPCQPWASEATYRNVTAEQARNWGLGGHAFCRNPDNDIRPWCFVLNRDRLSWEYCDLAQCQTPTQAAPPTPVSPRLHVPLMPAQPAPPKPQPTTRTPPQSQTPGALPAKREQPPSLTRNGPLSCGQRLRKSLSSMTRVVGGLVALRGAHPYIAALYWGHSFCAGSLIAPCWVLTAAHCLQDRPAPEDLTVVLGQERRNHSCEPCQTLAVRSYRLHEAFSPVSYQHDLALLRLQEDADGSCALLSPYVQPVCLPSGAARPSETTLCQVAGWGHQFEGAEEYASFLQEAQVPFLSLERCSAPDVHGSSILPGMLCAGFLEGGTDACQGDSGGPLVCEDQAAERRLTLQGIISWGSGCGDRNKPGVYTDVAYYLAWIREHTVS

[6] = biological target: Induced myeloid leukemia cell differentiation protein Mcl-1 (Homo sapiens, UniProt Q07820); format: functional
[7] = NIH-3T3 fibroblast cytotoxicity, dose response, cytotoxicity control, cell-based, fluorescence, Alamar Blue, secondary assay (AID 2327); format: functional;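 further: NIH-3T3 mouse fibroblasts cultured with fluconazole at 8 µg/mL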
[8] = fluconazole-exposed Candida albicans growth modulators – fluorescence, retest, confirmation (AID 2467); format: functional, cell-based
[9] = Trypanosoma cruzi growth suppression in host cells – NIH3T3 host cells, beta-gal luminescence, confirmation (AID 2044); format: functional, cell-based;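 further: intracellular parasites grown in NIH/3T3 mouse fibroblasts as host cells; luminescent beta-galactosidase reporter signal from transgenic T. cruzi replicating inside host cells; inhibitors lower the luminescence signal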
[10] = NIH3T3 cell viability loss – ATP luminescence, mouse fibroblasts, counter-screen, dose response (AID 2010); format: functional, cell-based;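 further: cells exposed to compound for about 90 hours before reading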
Prothrombin = Prothrombin (Homo sapiens, UniProt P00734); assay: Thrombin 1536 HTS Dose Response Confirmation. [Related pubchem assays: 1046 (Thrombin 1536 HTS; hits were confirmed in this assay)]; format: functional
[11] = non-specific 3'UTR reporter inhibition in Clone20-Shn3RL – cell-based, Renilla luciferase, cherry-picked, counter-screen for Shn3 inhibitor project, dose response (AID 624133); format: functional
Protein Wnt-3a = Protein Wnt-3a (Mus musculus, UniProt P27467); assay: antagonism of Wnt3a pathway luciferase reporter – Wnt-LIGHT cells, luminescence, selectivity assay for Gli-SUFU antagonist project, dose response (AID 651570); format: functional; conditions: read-out: IC50_Mean;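 further: Wnt-LIGHT reporter cells stimulated with conditioned medium from Wnt3a-producing cells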
[12] = reduction of Shn3 3'UTR-driven luciferase in osteoblasts – cell-based, Clone20 osteoblasts, firefly luciferase, cherry-picked, dose response (AID 624132); format: functional;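 further: firefly luciferase luminescence from reporter carrying the Shn3 3'UTR in osteoblasts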
[13] = loss of viability in HepG2 cells – cell-based, CellTiter-Glo, cherry-picked, cytotoxicity control for Shn3 inhibitor project, dose response (AID 624134); format: functional
[14] = biological target: DNA dC->dU-editing enzyme APOBEC-3G (Homo sapiens, UniProt Q9HC16); assay: Dose Response confirmation of small molecule APOBEC3G DNA Deaminase Inhibitors via a fluorescence-based single-stranded DNA deaminase assay. [Related pubchem assays (depositor defined):AID493012, AID493028]; format: functional
[15] = intracellular Trypanosoma cruzi inhibitors in host cells – cell-based, plate reader, cherry-pick samples, set 3, dose response (AID 651818); format: functional;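 further: compounds incubated with infected cells for about four days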
[16] = viability of HCT116 lacking mutant beta-catenin – cell-based, human colon tumor, dose response (AID 1045); format: functional;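 further: HCT116 colon tumor cells with beta catenin knocked out; cells exposed to compound for 60 hours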
[17] = viability of PTEN-deleted HCT116 cells – cell-based, HCT116 PTEN knockout, dose response (AID 1047); format: functional;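 further: HCT116 colon tumor cells with PTEN knocked out; cells exposed to compound for 60 hours before readout; potency for loss of cell viability measured by luminescence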

T1 sequence (P11940 whole entry, the tested form may be a part): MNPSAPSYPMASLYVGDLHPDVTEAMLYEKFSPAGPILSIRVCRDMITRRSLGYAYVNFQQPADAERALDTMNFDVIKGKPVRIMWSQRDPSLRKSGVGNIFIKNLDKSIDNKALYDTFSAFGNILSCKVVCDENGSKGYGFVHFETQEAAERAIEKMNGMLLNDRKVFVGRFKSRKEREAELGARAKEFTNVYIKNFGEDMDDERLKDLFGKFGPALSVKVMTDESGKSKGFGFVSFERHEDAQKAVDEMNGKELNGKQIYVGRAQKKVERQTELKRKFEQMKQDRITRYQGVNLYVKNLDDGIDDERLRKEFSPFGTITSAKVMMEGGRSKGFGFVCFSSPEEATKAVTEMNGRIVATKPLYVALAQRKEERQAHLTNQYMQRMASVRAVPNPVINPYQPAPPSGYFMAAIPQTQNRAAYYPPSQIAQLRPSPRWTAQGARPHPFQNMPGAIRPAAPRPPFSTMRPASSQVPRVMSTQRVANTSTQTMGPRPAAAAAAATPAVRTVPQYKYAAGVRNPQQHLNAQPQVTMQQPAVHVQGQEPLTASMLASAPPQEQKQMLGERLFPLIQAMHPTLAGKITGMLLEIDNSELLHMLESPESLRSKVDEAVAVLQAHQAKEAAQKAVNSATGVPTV
Genome polyprotein, sequence (P29990 2492-3391 limits assumed): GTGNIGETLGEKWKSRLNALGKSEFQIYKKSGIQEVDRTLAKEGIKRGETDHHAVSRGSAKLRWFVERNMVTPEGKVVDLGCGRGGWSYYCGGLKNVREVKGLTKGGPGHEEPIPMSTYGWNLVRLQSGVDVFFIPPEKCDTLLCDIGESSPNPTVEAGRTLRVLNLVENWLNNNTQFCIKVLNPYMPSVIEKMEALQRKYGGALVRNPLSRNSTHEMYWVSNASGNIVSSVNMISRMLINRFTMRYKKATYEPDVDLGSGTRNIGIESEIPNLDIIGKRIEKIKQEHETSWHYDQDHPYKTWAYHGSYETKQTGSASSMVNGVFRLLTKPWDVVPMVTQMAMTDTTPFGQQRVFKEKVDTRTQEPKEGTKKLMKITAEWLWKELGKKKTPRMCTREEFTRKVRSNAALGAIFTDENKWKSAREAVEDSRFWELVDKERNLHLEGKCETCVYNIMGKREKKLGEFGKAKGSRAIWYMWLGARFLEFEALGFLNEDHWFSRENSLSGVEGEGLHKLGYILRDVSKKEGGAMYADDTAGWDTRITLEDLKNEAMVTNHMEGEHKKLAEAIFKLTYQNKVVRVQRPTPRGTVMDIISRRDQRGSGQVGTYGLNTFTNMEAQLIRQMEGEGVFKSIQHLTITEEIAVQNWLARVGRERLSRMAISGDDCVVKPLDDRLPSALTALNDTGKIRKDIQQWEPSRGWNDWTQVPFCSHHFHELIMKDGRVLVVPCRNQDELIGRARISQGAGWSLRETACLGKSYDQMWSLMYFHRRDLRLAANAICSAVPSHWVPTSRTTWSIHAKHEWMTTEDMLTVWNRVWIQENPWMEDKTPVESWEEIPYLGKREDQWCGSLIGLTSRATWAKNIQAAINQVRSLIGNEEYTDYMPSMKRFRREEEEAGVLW
DNA dC->dU-editing enzyme APOBEC-3G, sequence (Q9HC16 whole entry): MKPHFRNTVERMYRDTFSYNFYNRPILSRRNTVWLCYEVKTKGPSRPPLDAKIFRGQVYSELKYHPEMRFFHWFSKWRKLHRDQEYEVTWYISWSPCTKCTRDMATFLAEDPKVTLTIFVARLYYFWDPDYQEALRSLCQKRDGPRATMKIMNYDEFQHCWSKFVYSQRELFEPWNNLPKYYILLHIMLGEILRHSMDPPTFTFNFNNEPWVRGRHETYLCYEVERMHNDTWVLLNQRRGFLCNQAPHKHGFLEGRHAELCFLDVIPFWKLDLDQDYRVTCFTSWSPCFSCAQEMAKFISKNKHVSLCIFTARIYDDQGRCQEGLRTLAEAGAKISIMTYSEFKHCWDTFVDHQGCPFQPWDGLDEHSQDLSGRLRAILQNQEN
Induced myeloid leukemia cell differentiation protein Mcl-1, sequence (Q07820 whole entry): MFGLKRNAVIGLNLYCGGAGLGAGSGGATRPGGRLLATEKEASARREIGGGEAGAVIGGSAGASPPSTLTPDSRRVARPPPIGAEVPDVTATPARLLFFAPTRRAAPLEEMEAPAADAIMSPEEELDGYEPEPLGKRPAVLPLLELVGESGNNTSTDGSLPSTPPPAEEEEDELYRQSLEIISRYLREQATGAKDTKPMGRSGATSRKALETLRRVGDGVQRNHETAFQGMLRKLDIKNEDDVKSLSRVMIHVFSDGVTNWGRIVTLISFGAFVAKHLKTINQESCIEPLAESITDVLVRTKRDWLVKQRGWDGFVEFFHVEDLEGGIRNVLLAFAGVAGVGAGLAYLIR
Protein Wnt-3a, sequence (P27467 whole entry): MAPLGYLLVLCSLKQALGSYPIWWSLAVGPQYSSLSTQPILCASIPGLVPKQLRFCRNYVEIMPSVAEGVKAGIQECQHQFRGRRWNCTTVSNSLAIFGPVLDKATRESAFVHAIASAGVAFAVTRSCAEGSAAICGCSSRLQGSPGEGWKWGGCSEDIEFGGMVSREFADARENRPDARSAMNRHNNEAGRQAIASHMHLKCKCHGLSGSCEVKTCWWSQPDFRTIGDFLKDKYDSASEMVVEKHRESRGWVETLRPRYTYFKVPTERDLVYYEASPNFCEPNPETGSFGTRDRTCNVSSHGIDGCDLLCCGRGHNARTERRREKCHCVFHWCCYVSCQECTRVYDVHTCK

Compound: CC1CCCN(c2c([N+](=O)[O-])c(=O)oc3ccccc23)C1 (stereo not given)
- IC50 (cells [4]): > 29.9 µM (inactive)
- EC50 (cells [5]): > 29.9 µM (inactive)

Compound: O=C(NC1CCCCCC1)c1c(O)nc2ccccc2c1O
- AC50 (HeLa): 62.7 µM (active)

Compound: Cc1c(C(=O)Nc2ccccc2F)cnn1-c1ccccc1
- AC50 (HeLa): 80.9 µM (active)

Compound: O=C1N=C(Nc2ccccc2Cl)S/C1=C\c1cccc([N+](=O)[O-])c1O
- EC50 [7]: > 150 µM (inactive)
- CC50 (Vero): > 40 µM (active)
- EC50 [8]: 7.16 µM (active)

Compound: O=C(Nc1ccc(Cl)c(Cl)c1)OCc1cccnc1
- EC50 [9]: 2.5 µM (active)
- AC50 (HeLa): 39.5 µM (active)
- EC50 [10]: > 30 µM (not active)

Compound: Cc1ccc(NC(=O)c2ccc3ccccc3n2)cc1S(=O)(=O)N(C)C
- AC50 (HeLa): 35.4 µM (active)

Compound: CCN(CC)S(=O)(=O)c1ccc(S(=O)(=O)N2CCCC(C(=O)NC3CC3)C2)cc1 (stereo not given)
- AC50 [11]: 9.46 µM (active)
- IC50 (Protein Wnt-3a): 0.444 µM (active)
- AC50 [12]: 2.9 µM (active)
- AC50 [13]: 52 µM (active)

Compound: CCOC(=O)c1sc(=S)n(C)c1NC(=O)c1ccc(OC)cc1
- IC50 [14]: 41.1 µM (active)

Compound: c1ccc2c(c1)OCC(c1nnc3sc(-c4ccc5c(c4)OCO5)nn13)O2 (stereo not given)
- IC50 [14]: 52.8 µM (active)

Compound: C[C@@H]1CN([C@@H](C)CO)C(=O)c2cccc(NC(=O)Nc3ccc(C(F)(F)F)cc3)c2O[C@@H]1CN(C)Cc1ccc(C(F)(F)F)cc1
- AC50 [15]: 3.89 µM (active)

Compound: Cc1noc(C)c1S(=O)(=O)Nc1ccc2c(c1)CC(=O)N([C@@H](C)CO)C[C@H](C)[C@@H](CN(C)Cc1ccc(-c3ccccc3)cc1)O2
- AC50 [15]: 4.33 µM (active)

Compound: COc1ccc(S(=O)(=O)Nc2ccc3c(c2)CC(=O)N([C@@H](C)CO)C[C@@H](C)[C@@H](CN(C)Cc2ccc(C(=O)Nc4ccccc4N)cc2)O3)cc1
- AC50 [15]: 1.62 µM (active)

Compound: Cc1ccc(S(=O)(=O)Nc2cccc3c2O[C@@H](CN(C)Cc2ccc(-c4ccccc4)cc2)[C@@H](C)CN([C@@H](C)CO)C3=O)cc1
- AC50 [15]: 3.36 µM (active)

Compound: Cc1ccc(-c2nn(-c3ccccc3)cc2/C=C2\SC(=S)N(CC(=O)O)C2=O)cc1
- IC50 [6]: 4.14 µM (active)
- IC50 (Genome polyprotein): 36.5 µM (active)

Compound: Oc1ccc(/N=C/C=C/c2ccc(Br)cc2)cc1-c1nc2ccccc2s1
- EC50 [16]: 22.4 µM (active)
- EC50 [17]: 28.8 µM (active)

More lines, main results first:

- IC50 [1]: > 66 µM (inactive)
- IC50 [2]: > 66 µM (inactive)
Compound: N#Cc1c(NC(=O)C2CC(c3ccccc3O)=NO2)sc2c1CCC2 (stereo not given)

- AC50 [3]: 8.46 µM (active)
- IC50 (Genome polyprotein): 9.85 µM (active)
Compound: Cc1ccc2nc3cc([N+](=O)[O-])cc([N+](=O)[O-])c3cc2c1
- CC50 (Vero): 6.28 µM (active)

- IC50 (Leucine aminopeptidase): 11.6 µM (active)
Compound: O=C(NCc1ccco1)C(=O)c1cn(CC(=O)N2CCCCCC2)c2ccccc12

- IC50 (Coagulation factor XII): > 50 µM (inactive)
Compound: CCOc1ccc(-n2c(SCC(=O)Nc3cc(C)on3)nnc2-c2c[nH]c3ccccc23)cc1

- IC50 [6]: 4.96 µM (active)
Compound: Cc1cc(O)n2nc(-c3ccsc3-n3c(C)ccc3C)cc2n1

- IC50 [1]: > 66 µM (inactive)
- IC50 [2]: > 66 µM (inactive)
Compound: O=C(CSc1nc2c(c(=O)n1-c1ccc(F)cc1)SCC2)NCc1ccco1

- IC50 (Coagulation factor XII): > 50 µM (inactive)
Compound: CCOc1ccc(N(CC(=O)Nc2cccc(F)c2)S(=O)(=O)c2c(C)noc2C)cc1

- IC50 (Prothrombin): > 50 µM (not active)
Compound: Cc1ccccc1NC(=O)c1ccc(NC(=O)C2CC(=O)OC23CCCCC3)cc1 (stereo not given)

- IC50 (Prothrombin): > 50 µM (not active)
Compound: CCOC(=O)N1CCN(C(=O)c2oc3ccc(S(=O)(=O)N4CCOCC4)cc3c2C)CC1

- IC50 [1]: > 66 µM (inactive)
- IC50 [2]: > 66 µM (inactive)
Compound: COc1ccc(NC(=S)NC(=O)c2ccccc2)cn1

- IC50 (Coagulation factor XII): > 50 µM (inactive)
Compound: CCOCCn1c(-c2ccc(OC)cc2)nc2ccccc21

- IC50 (Prothrombin): > 50 µM (not active)
Compound: CCCN1CCC(N2CCCC(C(=O)O)C2)CC1 (stereo not given)

- IC50 (Coagulation factor XII): > 50 µM (inconclusive)
Compound: COc1ccc(/C=C(\C#N)c2n[nH]c(Cn3cncn3)n2)cc1

- IC50 (Leucine aminopeptidase): 80.6 µM (active)
Compound: CC1=NNC(=O)C1CCC(=O)N/N=C(/C)c1ccc([N+](=O)[O-])cc1 (stereo not given)

- IC50 (Prothrombin): > 50 µM (not active)
Compound: NC(=O)N/N=C/C=C/c1ccccc1 [PHENYLETHENYLSEMICARBAZONE]
